# Assay results taken from PMC11984905, “Chiral Switch of Gadopiclenol: New Standards in MRI Probes” (Advanced Science, 2025).
# Assays:
# [1] = Eu^3+ complex, 0.1 M Me4NCl, 25 °C, cited from earlier work
# [2] = 0.1 M Me4NCl, 25 °C; cited from earlier work
# [3] = Relaxivity (NMRD) in saline solution, human plasma and Seronorm at 310 K; type: physicochemical
# Protocol: The magnetic‐field dependence of the longitudinal relaxation rate of water protons (^1H NMRD) were measured in aqueous solution by using a variable field relaxometer equipped with an HTS‐110 3T Metrology Cryogen‐free Superconducting Magnet (Mede, Italy), operating in the overall range of proton Larmor frequencies of 20–120 MHz (0.47–3.00 T). The measurements were performed using the standard inversion recovery sequence (20 experiments, 3 scans) with a 90° pulse width of 3.5 µs. The temperature was controlled with a Stelar VTC‐91 heater airflow. Additional points in the 0.01–10 MHz frequency range were collected on a Fast‐Field Cycling (FFC) Stelar SmarTracer Relaxometer. T 1 values at 500 MHz were collected on a Bruker Avance III NMR spectrometer operating at 11.7 T. The concentration of Gd^3+ in the solutions was determined by using bulk magnetic susceptibility (BMS) shift measurements performed at 11.7 T. For the measurements in the biological fluid, lyophilized plasma matrix (Siemens Healthcare) was added to 1 mL of [Gd(ent‐L2)] (1.0 mM) or Seronorm (Sero) was solubilized in 5 mL [Gd(ent‐L2)] (1.0 mM) solution. ^1H NMRD of the final solution was measured at 310 K.
# [4] = Biodistribution and in vivo dynamic T1-weighted MRI; design: species or system A/J healthy mice; conditions: 0.1 mmol Gd/kg i.v.
# Protocol: Dynamic T 1‐weighted MRI on twelve A/J healthy mice was used to compare the biodistribution of ([Gd(ent‐L2)] and [Gd(BT‐DO3A)] (Gadovist), n = 6 animals each), administered at 0.1 mmol Gd/kg. The MRI monitored the distribution within abdominal tissues for up to 1 h post‐administration MRI images and the pharmacokinetic curves are shown in Figure 6 .
# All the procedures and the experiments were conducted according to the national and international laws on experimental animal research (L.D. 26/2014; Directive 2010/63/EU) and under a specific Italian Ministerial Authorization (project research number 46/2015‐PR). Twelve A/J healthy mice (females, 6–7 weeks old, supplied by Envigo RMS S.r.l.) were housed in a controlled environment (22°C, 55% humidity, 15–20 air changes/hour, 12‐h light/dark cycle) with ad libitum access to VRF1 (P) certified pellets and filtered water. To minimize discomfort, the animals were socially housed with enrichment items. Veterinary care was available throughout the study to alleviate any potential pain or distress following procedures. […] The animals were randomly assigned to two experimental groups (n = 6 each, with sample size confirmed via GPower) and underwent to Magnetic Resonance Imaging (MRI) experiments performed using a BioSpec 47/30 preclinical scanner (Bruker Biospin, Ettlingen, Germany) operating at […] (i.e., at a proton Larmor frequency of 125 MHz) and equipped with two‐channel 35 mm RF volume coil. During MRI experiments, all the animals were anaesthetized with isoflurane gas (≈1%) in O2. Anaesthesia was maintained by adjustment of gas level as a function of breath rate. Before injection of each test article, T 1‐weighted spin echo sequences were acquired on the animal in order to check the position of the animal. A series of T 1‐weighted 3D gradient echoscans (repetition time = 50 ms, flip angle = 50°, echo time = 2.8 ms, number of averages = 2, matrix size (3D) = 192 × 192 × 8, field of view = 2.5 × 2.5 × 1.2 cm, acquisition time = 154 s) were then acquired before and after the intravenous administration of a 50 mM saline solution (0.9%) of [Gd(ent‐L2)] (n = 6 mice) and [Gd(BT‐DO3A)] (Gadovist, Bayer Schering, Germany) (n = 6 mice) at an injection rate of ≈2 mL/min through a catheter placed in the tail vein of the animal. Both [Gd(ent‐L2)] and [Gd(BT‐DO3A)] were administered at a dose of 0.1 mmol Gd/kg corresponding to an administration volume of 2 mL kg^−1. The kinetics of the Gd(III)‐complexes was followed up to 60 min post‐injection. After imaging was performed, the mouse was removed from the scanner and returned to the Animal Facility room. At the end of the study all animals were sacrificed by overdose of anaesthesia and cervical dislocation. Unblinded image analysis was performed by positioning the region of interest (ROIs) over liver, kidney, muscle, and blood vessel. ROIs positioning and signal quantification was performed by using a home‐developed plugin, running on Image J.^[ [51] ^]
# Signal enhancement (Enh) was calculated using the formula: Enh = 100×(SignalpostCA ‐SignalpreCA)/SignalpreCA, where SignalpreCA and SignalpostCA denote the MR signal before and after administration of contrast agents, respectively. Data were presented as mean ± standard deviation (SD). The sample size (n = 6 per group) was determined a priori using GPower software to ensure adequate statistical power. The Levene's test was employed to assess the homogeneity of variances among groups. For comparisons where homogeneity of variance was confirmed, a one‐way ANalysis Of VAriance (ANOVA) was applied to test the null hypothesis that treatment groups originate from the same distribution. Post‐hoc pairwise multiple comparisons were performed using Tukey's method when significant differences were detected. Statistical analyses and data visualization were conducted using Mathematica (Wolfram, USA), while summary statistics (mean, SD, and standard error) were calculated using Microsoft Excel (USA). […]
structure (smiles),measurement,setting,value
"O=C(O)CCC(C(=O)O)N1CCN(C(CCC(=O)O)C(=O)O)Cc2cccc(n2)CN(C(CCC(=O)O)C(=O)O)CC1 (racemic) [rac‐L1, 2,2’,2’’-[3,6,9,15-tetraazabicyclo[9.3.1]pentadeca-1(15),11,13-triene-3,6,9-triyl]tripentanedioic acid]",pGd (Eu^3+),"[1]; 1 µM metal, 10 µM L, pH 7.4",16.06
same,logK GdL (Eu^3+),[1],18.66
same,logKGdH2L (Eu^3+),[1],4.54
same,logKGdH3L (Eu^3+),[1],4.12
same,logKGdHL (Eu^3+),[1],5.34
same,logK^c GdL (Eu^3+),[1]; pH 7.4,15.10
same,logK1^H,[2],10.85
same,logK2^H,[2],6.86
same,logK3^H,[2],5.37
same,logK4^H,[2],4.77
same,logK5^H,[2],4.24
same,logK6^H,[2],3.4
same,logK7^H,[2],1.92
same,ΣlogKi^H,[2],37.50
O=C(CCC(C(=O)[O-])N1CCN(C(CCC(=O)NCC(O)CO)C(=O)[O-])Cc2cccc(n2)CN(C(CCC(=O)NCC(O)CO)C(=O)[O-])CC1)NCC(O)CO.[Gd+3] (stereo not drawn) [[Gd(ent‐L2)]],plasma protein binding,[3],lack of plasma protein binding
same,r1,"[3]; 0.47 T, human plasma, 310 K",13.6 ± 0.1 mM⁻¹ s⁻¹
same,r1,"[3]; 0.47 T, saline solution, 310 K",12.6 ± 0.1 mM⁻¹ s⁻¹
same,r1,"[3]; 1.41 T, human plasma, 310 K",13.4 ± 0.2 mM⁻¹ s⁻¹
same,r1,"[3]; 1.41 T, saline solution, 310 K",12.6 ± 0.1 mM⁻¹ s⁻¹
same,r1,"[3]; 3 T, human plasma, 310 K",13.1 ± 0.2 mM⁻¹ s⁻¹
same,r1,"[3]; 3 T, saline solution, 310 K",12.4 ± 0.1 mM⁻¹ s⁻¹
same,r 1 relative to that of [Gd(BT-DO3A)] (Gadovist),[3]; 37 °C and 3 T,more than two times higher
same,change in relaxivity (NMRD profile) in human plasma and in Seronorm,"[3]; 310 K, vs water",negligible changes in relaxivity
same,elimination pathway,[4],renal elimination remains the primary pathway
same,average maximum signal enhancement in the liver,"[4]; 3 T, n = 6",≈ 210%
same,wash-in and wash-out kinetics,[4]; up to 1 h post-administration,rapid wash‐in and wash‐out
same,"maximum signal enhancement in the blood compartment, times higher than that of [Gd(BT-DO3A)]","[4]; same dose, 3 T, significance level 0.1%",≈ 2 times
same,decrease in signal enhancement in the blood compartment,"[4]; within 30 min, 3 T",≥ 50%
